Results on six compounds are retold here after US8748618B2, “Inhibitors of inv(16) leukemia” (University of Virginia Patent Foundation, priority 2009, dated 2014).

As a reminder, the GI50 is the concentration at which growth is held to half of that of the control. As usually defined, the inhibition is the change of the read-out against control, counted positive when it falls. Higher therefore signals a response far below the control.

Data set [1] concerns ME-1 cells. In words: Apoptosis by flow cytometry, Annexin V/PI positivity. It counts as cell-based, human. Conditions: FIG. 4C. An excerpt: (§1) We have tested several of the compounds we have synthesized for their effects on ME-1 cells, a leukemia cell line harboring the inv(16) (Yanagisawa, Horiuchi et al. 1991). […] AI-4-57 has also been tested against the Kasumi-1, Jurkat, and RS4; 11 leukemia cell lines (FIG. 4.B). […] We have also examined effects on apoptosis using flow cytometry to measure Annexin V/PI (propidium iodide) positivity. […] The selectivity for specific cell lines and the correlation of activity in the FRET assay with effects on inv(16) cells all support the hypothesis that the compounds are hitting the desired target.
A general note: In flow cytometry, cells or beads pass a laser one at a time.

The subject of data set [2] is ME-1 cells. In words: MTT viability assay, growth of ME-1 cells. Particulars: for Growth of ME-1 cells: FIG. 4A. It counts as cell-based, human.
From the text: as §1
The dimer with a 7 atom linker (AI-4-62) has been tested for effects on the growth of the ME-1 cell line (see FIG. 7), a leukemia cell line with the inv(16).
(In general: Tetrazolium dyes change colour on reduction, which living cells bring about.)

The target of data set [3] is CBFβ (Homo sapiens (Human), UniProt Q13951). In words: NMR chemical shift perturbation with CBFβ. Format: binding. Conditions: 250 uM compound; for NMR with CBFβ + 250 uM compound, CSP G 112: residue G 112; for NMR with CBFβ + 250 uM compound, CSP K 98: residue K 98. An excerpt: Validation of binding of a small molecule inhibitor to its protein target is an essential step in developing potent inhibitors. This can be readily achieved using either NMR spectroscopy or X-ray crystallography. In the case of X-ray crystallography, this is achieved by co-crystallization of the protein with the ligand and determination of the structure. In the case of NMR spectroscopy, the structure of a compound-protein complex can also be determined. In addition, chemical shift perturbations of the protein NMR spectrum (typically 2D ^15N—^1H HSQC or ^13C—^1H HSQC) in the presence of compounds can both confirm binding to the target and localize the binding site on a protein (Pellecchia, Sem et al. 2002; Salvatella and Giralt 2003). The latter method is a quick and efficient method to confirm binding to the protein and to determine the binding site when appropriate labeled samples are available and the resonance assignments are known. Such data can also be used to dock the small molecule to the protein. Because the structure of CBFβ has been solved by NMR (Huang, Peng et al. 1999), resonance assignments are available and we have employed this approach as an additional screen to ensure the validity of the inhibitors we are developing and to determine the binding site (see below).
Sequence of CBFβ (Q13951 1-141, species assumed): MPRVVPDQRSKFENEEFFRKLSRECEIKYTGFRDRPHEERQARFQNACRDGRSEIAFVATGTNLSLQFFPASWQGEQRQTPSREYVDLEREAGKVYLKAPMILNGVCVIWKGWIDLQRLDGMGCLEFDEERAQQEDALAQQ

For data set [4] the following is noted: ip injection; NCI Developmental Therapeutics website; cited from earlier work.
Data set [5] concerns NCI 60 cell lines. Conditions: for 79% of the cell lines; cited from earlier work.
Data set [6] deals with CBFβ-SMMHC:RD (CBFβ-SMMHC binding to the Runt domain). Put plainly: FRET assay, inhibition of CBFβ-SMMHC binding to the Runt domain. Conditions: Table 1 monomers; 20 nM both proteins. Here is the method:
FRET assay. […] We fused the green fluorescent protein derivative Cerulean to the N-terminus of the Runt domain and the green fluorescent protein derivative Venus to the N-terminus of CBFβ-SMMHC (as well as to CBFβ (Gorczynski, Grembecka et al. 2007)). The ratio of the emission intensities at 525 nm and 474 nm, measured after excitation at 433 nm, was used as the readout in this assay. The dynamic range for the FRET assay was determined by adding a 30-fold excess of untagged CBFβ-SMMHC (or CBFβ in the case of CBFβ—Runt domain binding) to the assay and the associated change in the FRET ratio was defined as 100% inhibition.
As shown by Shoichet and co-workers (Seidler, McGovern et al. 2003), a primary source of false positives in any screen is micelle formation. […] A substantial loss of activity in the presence of detergent is a hallmark of inhibition by micelle formation and such compounds are thus identified as false positives. In addition, we are also incubating compound with protein and checking by mass spectroscopy to ensure that positive hits are not acting by covalent addition to either of the proteins.

Data set [7] concerns inv(16) repression (CBFβ-SMMHC) at RUNX binding site reporter. In words: Luciferase reporter assay of inv(16) repression. It counts as cell-based. Conditions: FIG. 10. The text has this:
A luciferase reporter assay has been developed to test the effects of inhibitors on inv(16) repression. Expression of luciferase is driven by multiple copies of a RUNX binding site using endogenous RUNX and CBFβ. CBFβ-SMMHC is expressed in these cells, resulting in repression of luciferase expression.
In general terms: A reporter such as luciferase makes a cellular process visible.

The test system of data set [8] is human bone marrow mononuclear cells (BM MNCs). In words: MTT assay on human bone marrow mononuclear cells. It counts as cell-based. Particulars: 48 hour treatment, up to 10 μM. Here is the method: (§2) We have tested AI-4-83 on human bone marrow mononuclear cells (for toxicity) and on one inv(16) patient sample using an MTT assay after a 48 hour compound treatment.

In data set [9] the test system is RS4; 11 cells. Put plainly: MTT assay, growth of RS4;11 cells. It counts as cell-based.
From the text: as §1
(§3) Below are two exemplary dimeric compound formulas, shown here without the possible substituents indicated elsewhere herein.

In data set [10] the test system is Kasumi-1 cells. In words: MTT assay, growth of Kasumi-1 cells. It counts as cell-based.
From the text: as §1, §3

In data set [11] the test system is normal bone marrow mononuclear cells. In words: Effect on normal bone marrow mononuclear cells (control of the leukemia initiating cell test). It counts as cell-based. The text has this:
(§4) Dr. Lucio Castilla's lab has identified a specific population of cells referred to as leukemia initiating cells using mouse models of inv(16) leukemia (Kuo, Y. H., et al., Cbf beta-SMMHC induces distinct abnormal myeloid progenitors able to develop acute myeloid leukemia. Cancer Cell, 2006. 9(1): p. 57-68). […] Upon acquisition of such secondary mutations, these cells can progress to overt leukemia. These cells are also typically more resistant to traditional cytotoxic chemotherapy and therefore represent a pool of cells from which relapse can occur. We have tested AI-4-83 against this pool of cells and shown that the compound is very effective at inducing apoptosis in this population.

In data set [12] the test system is inv(16) patient sample cells. In words: MTT assay on inv(16) patient sample. Format: cell-based, human. Conditions: 48 hour treatment, 10 μM. Here is the method:
as §2

The subject of data set [13] is inv(16) leukemia initiating cells. In words: Apoptosis of inv(16) leukemia initiating cells from a mouse model. It counts as cell-based. Particulars: 3 day treatment, 2 μM, FIG. 12.
From the text: as §4

Data set [14] has as its system CDKN1a gene expression. In words: CDKN1a gene expression by RT-PCR in ME-1 cells. Format: cell-based, human. Conditions: 10, 5 and 2.5 μM, FIG. 9. An excerpt:
The effects of the dimeric inhibitor AI-4-83 on CDKN1a gene expression were examined using RT-PCR. […] In addition, the effect of AI-4-83 is much more substantial than that for the monomeric compound, supporting the increased efficacy of the dimeric versus monomeric compounds.

Data set [15] concerns Jurkat cells. Put plainly: MTT assay, growth of Jurkat cells. Format: cell-based.
From the text: as §1, §3

For `CCOc1ccc2[nH]c(-c3ccccn3)nc2c1` [LD-1-29], the “Apoptosis (AnnexinV/PI)” value in data set [1] (40 μM) is given as “substantial apoptosis”. The “Percentage of apoptotic cells (AnnexinV/PI)” value in data set [1] (3 different concentrations) is “clear dose-dependent increase in the percentage of apoptotic cells”. The “Growth of ME-1 cells” value in data set [2] (MTT) was “effective inhibition of growth”. In data set [3], the “NMR with CBFβ + 250 uM compound, CSP G 112” value (from here on “NMR … CSP G 112”) is 0.026 ppm and the “NMR with CBFβ + 250 uM compound, CSP K 98” value (from here on “NMR … CSP K 98”) is listed as “no change”.
With `COc1ccc2[nH]c(-c3ccccn3)nc2c1` [NCI-320656, reference compound], in data set [4], the Tolerated by mice entry is given as “up to 200 mg/kg/day”. In data set [5], the GI50 was ≥ 100 µM. In data set [3], the “NMR … CSP G 112” value was determined as 0.039 ppm and the “NMR … CSP K 98” value was 0.026 ppm.
Regarding `CN(C)c1ccc2[nH]c(-c3ccccn3)nc2c1` [LD-2-63], in data set [6], the “IC50 FRET (CBFβ-SMMHC:RD, 20 nM both)” value is “Interference with assay”. In data set [3], the “NMR … CSP G 112” value is 0.037 ppm and the “NMR … CSP K 98” value is listed as 0.023 ppm.
As to `COc1ccc2[nH]c(-c3ccc(OCCOCCOc4ccc(-c5nc6cc(OC)ccc6[nH]5)nc4)cn3)nc2c1` [AI-4-62], in data set [7], the Luciferase activity result was “dose-dependent increase in luciferase activity”. In [8], the “Viability of bone marrow mononuclear cells” value is “no effect on the viability”. In addition, the “Effect on RS4;11 cells” value in data set [9] (10 μM, FIG. 8) was “little to no effect”. In addition, the “Effect on Kasumi-1 cells” value in [10] (10 μM, FIG. 8) is given as “little to no effect”. The inhibition at 10 µM in data set [2] (Homo sapiens, ME-1, 10 μM) is 100%. In addition, the “Potency of dimer relative to the corresponding monomer on ME-1 cells” value in [2] (MTT, FIG. 7) is reported as ~15 fold. In addition, in data set [11], the “Effect on normal bone marrow mononuclear cells” value is “no effect”. The “Viability of inv(16) patient sample” value in data set [12] was “substantial effect”. Besides, the “Cell death of leukemia initiating cells” value in data set [13] is given as 80%. Moreover, the CDKN1a gene expression result in data set [14] is “dose-dependent substantial increase”. The “Effect on Jurkat cells” value in [15] (10 μM, FIG. 8) is reported as “little to no effect”.
For the compound `COc1ccc2[nH]c(-c3ccccn3)nc2c1` [AI-4-57], in data set [9] (MTT, FIG. 4B), the “Growth of RS4;11 cells” value is “No effect on growth”. In data set [10] (MTT, FIG. 4B), the “Growth of Kasumi-1 cells” value is listed as “modest effect”. The “Growth of ME-1 cells” value in data set [2] (MTT) was “effective inhibition of growth”. Besides, in data set [3], the “NMR … CSP G 112” value amounted to 0.039 ppm and the “NMR … CSP K 98” value worked out at 0.026 ppm. The “Growth of Jurkat cells” value in data set [15] (MTT, FIG. 4B) was “No effect on growth”.
`c1ccc(-c2nc3cc(N4CCCC4)ccc3[nH]2)nc1` [AI-10-83]: in data set [6], the “IC50 FRET (CBFβ-SMMHC:RD, 20 nM both)” value was “Interference with assay”. Besides, in [3], the “NMR … CSP G 112” value worked out at 0.087 ppm and the “NMR … CSP K 98” value was found to be 0.039 ppm. Further, in data set [3] (residue L 97), the “NMR with CBFβ + 250 uM compound, CSP L 97” value was 0.034 ppm.
